Measurements from patent US11226337B2, “Chemoproteomic profiling of protein electrophilic and oxidative post-translational modifications” (Zenagem, LLC, priority 2017, dated 2022).

What was measured:
Test in all cases: SILAC RP-ABPP
Format in all cases: cell-based
[1] = target: T1, CTSD Cathepsin D (P07339) (Homo sapiens, UniProt P07339); conditions: SILAC H/L
T1 construct: In Situ Labelling of Cells with Hydrazine Probes for MS Experiments; endogenous in cells; host or cells: HEK293T and MDA-MB-231

[2] = target: T2, PLOD1 Procollagenlysine, 2oxoglutarate (Q02809) (Homo sapiens, UniProt Q02809); conditions: SILAC H/L, MDA-MB-231
T2 construct: In Situ Labelling of Cells with Hydrazine Probes for MS Experiments; endogenous in cells
T2 sequence (Q02809 19-727): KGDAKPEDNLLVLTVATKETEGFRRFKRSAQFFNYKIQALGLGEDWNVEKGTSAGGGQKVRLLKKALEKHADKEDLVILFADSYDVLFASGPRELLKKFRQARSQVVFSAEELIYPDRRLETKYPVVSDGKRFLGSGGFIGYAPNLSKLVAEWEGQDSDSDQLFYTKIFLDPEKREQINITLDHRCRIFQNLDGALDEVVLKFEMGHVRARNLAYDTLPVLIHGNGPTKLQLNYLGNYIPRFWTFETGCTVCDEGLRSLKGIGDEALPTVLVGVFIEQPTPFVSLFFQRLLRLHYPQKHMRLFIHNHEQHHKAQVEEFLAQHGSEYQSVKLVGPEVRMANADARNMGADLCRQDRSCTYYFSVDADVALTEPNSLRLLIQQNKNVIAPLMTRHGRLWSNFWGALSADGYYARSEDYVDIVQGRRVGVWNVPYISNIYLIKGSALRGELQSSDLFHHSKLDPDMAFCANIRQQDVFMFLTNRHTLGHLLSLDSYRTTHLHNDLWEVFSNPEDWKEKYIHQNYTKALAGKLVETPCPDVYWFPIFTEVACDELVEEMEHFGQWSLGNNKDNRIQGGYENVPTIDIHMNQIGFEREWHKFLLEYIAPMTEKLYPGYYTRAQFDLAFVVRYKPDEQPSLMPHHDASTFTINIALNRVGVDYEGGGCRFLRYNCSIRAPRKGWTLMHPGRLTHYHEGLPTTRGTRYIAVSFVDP

[3] = target: T3, ALDH1B1 Aldehyde dehydrogenase X (P30837) (Homo sapiens, UniProt P30837); conditions: SILAC H/L, HEK293T
T3 construct: shared by both the endogenous and recombinant forms of these proteins; endogenous in cells; host or cells: HEK293T and MDA-MB-231
T3 sequence (P30837 18-517): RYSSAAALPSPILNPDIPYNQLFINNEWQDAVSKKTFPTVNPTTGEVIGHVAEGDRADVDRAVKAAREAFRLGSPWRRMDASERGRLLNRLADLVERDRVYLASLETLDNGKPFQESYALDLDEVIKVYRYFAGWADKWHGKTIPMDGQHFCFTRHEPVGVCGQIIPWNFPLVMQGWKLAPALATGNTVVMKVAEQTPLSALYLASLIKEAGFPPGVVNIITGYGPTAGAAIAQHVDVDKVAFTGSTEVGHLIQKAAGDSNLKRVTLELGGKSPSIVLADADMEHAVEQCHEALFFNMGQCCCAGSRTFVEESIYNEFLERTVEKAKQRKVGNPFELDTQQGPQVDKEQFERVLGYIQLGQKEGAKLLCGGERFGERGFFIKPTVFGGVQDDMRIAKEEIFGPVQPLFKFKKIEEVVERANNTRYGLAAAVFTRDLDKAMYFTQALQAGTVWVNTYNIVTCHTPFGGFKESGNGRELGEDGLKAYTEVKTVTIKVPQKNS

T1 sequence (P07339 65-412): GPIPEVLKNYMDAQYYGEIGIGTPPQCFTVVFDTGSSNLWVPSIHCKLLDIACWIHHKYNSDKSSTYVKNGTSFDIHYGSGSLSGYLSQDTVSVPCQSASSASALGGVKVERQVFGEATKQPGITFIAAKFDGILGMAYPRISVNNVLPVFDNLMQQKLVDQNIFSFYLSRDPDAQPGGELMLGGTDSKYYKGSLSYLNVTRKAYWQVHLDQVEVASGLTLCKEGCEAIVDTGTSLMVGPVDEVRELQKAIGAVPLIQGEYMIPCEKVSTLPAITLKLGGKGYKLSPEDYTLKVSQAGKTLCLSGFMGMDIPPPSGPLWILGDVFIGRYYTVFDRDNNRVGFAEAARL

enrichment ratioavg ([1]; probe 2 1 mM 0.5 h vs probe 4, MDA-MB-231) | competition ratioavg ([1]; probe 2 vs probe 2+10x probe 4, MDA-MB-231) | enrichment ratioavg ([2]; probe 2 1 mM 0.5 h vs probe 4) | competition ratioavg ([2]; probe 2 vs probe 2+10x probe 4) | enrichment ratioavg ([3]; probe 2 1 mM 0.5 h vs probe 4) | competition ratioavg ([3]; probe 2 vs probe 2+10x probe 4) | SMILES | enrichment ratioavg ([1]; probe 1 3 mM 0.5 h vs probe 3, HEK293T) | competition ratioavg ([1]; probe 1 vs probe 1+10x probe 3, HEK293T) | enrichment ratioavg ([2]; probe 1 3 mM 0.5 h vs probe 3) | competition ratioavg ([2]; probe 1 vs probe 1+10x probe 3) | enrichment ratioavg ([3]; probe 1 3 mM 0.5 h vs probe 3) | competition ratioavg ([3]; probe 1 vs probe 1+10x probe 3)
 |  |  |  |  |  | C#CCNN.Cl [probe 1, prop-2-yn-1-ylhydrazine hydrochloride] | 13 | 1 | 6 | 3 | 6 | 3
16 | 4 | 8 | 3 | 11 | 5 | C#CCCNC(=O)c1ccc(NN)cc1.Cl [probe 2, N-(but-3-yn-1-yl)-4-hydrazinylbenzamide hydrochloride] |  |  |  |  |  | 
